{"source": "BindingDB's records for doi:10.1111/cbdd.12579", "about": "(University of Karachi, 2015)", "key": {"[1]": {"molecular_target": "Carboxylic ester hydrolase (Equus caballus, UniProt Q9N1N9)", "sequence (Q9N1N9 whole entry)": "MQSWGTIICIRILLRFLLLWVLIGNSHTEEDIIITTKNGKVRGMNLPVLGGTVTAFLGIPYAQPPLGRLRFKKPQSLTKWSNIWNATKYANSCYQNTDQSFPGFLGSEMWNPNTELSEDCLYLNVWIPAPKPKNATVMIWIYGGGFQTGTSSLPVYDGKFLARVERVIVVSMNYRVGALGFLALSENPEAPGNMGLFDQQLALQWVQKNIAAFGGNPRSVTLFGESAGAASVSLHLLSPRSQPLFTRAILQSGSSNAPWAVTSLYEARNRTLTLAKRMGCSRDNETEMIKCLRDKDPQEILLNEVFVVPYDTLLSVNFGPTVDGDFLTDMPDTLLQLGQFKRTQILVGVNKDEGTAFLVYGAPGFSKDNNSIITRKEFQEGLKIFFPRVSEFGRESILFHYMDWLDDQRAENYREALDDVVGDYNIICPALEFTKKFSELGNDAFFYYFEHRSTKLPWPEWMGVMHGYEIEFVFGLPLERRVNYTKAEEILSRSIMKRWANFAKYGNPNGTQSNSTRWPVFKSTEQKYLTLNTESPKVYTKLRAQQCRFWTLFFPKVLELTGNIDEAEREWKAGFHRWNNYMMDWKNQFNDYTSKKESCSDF", "experiment": "AChE and BChE Inhibition Assay", "conditions": "pH 8; 25 °C", "description": "(§1) A […] well plate was used for screening purpose. Each pyridopyrazine derivative was first dissolved in dimethyl sulfoxide to prepare the stock solutions. The synthetic compounds were then screened against electric eel acetylcholinesterase (eeAChE) and equine butyrylcholinesterase (BChE) at different concentrations (1 µM or 10 µM) of dimethyl sulfoxide as negative control in primarily screening. […] The reaction mixture which comprised of buffer solution (20 µL), synthetic compound (10 µL) and enzyme (0.5 and 3.4 U/mg, eeAChE or equine BChE) was primarily incubated for ten minutes at room temperature (25 C). Subsequently to the mixture, once the preincubation over, the acetylthiocholine iodide or butyrylthiocholine chloride (10 μL of 10 mM) was added and incubated it further for"}, "[2]": {"molecular_target": "Acetylcholinesterase (Electrophorus electricus, UniProt O42275)", "sequence (O42275 whole entry)": "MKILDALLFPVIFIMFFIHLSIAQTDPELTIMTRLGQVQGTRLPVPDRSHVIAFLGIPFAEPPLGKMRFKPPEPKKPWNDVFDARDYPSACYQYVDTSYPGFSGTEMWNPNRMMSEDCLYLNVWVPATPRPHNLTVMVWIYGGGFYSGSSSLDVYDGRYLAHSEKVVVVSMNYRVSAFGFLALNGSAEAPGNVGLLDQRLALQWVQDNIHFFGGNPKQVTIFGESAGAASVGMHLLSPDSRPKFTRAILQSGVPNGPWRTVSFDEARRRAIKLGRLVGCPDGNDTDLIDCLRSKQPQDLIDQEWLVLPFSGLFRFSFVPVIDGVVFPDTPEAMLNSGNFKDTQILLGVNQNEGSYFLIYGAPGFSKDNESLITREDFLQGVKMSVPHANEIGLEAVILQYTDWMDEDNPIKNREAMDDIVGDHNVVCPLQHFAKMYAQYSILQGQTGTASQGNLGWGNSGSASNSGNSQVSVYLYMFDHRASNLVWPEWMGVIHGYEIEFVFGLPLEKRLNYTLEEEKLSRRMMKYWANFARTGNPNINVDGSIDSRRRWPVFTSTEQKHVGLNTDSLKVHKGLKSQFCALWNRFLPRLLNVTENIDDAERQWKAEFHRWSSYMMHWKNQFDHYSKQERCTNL", "experiment": "AChE and BChE Inhibition Assay", "conditions": "pH 8; 25 °C", "description": "as §1"}}}
{"smiles": "c1ccc(-c2cnc3cccnc3n2)cc1", "note": "[3-Phenylpyrido[2,3-b]pyrazine (6a)]", "values": [{"measurement": "IC50", "setting": "[1]", "value": 35.4, "unit": "µM"}, {"measurement": "IC50", "setting": "[2]", "value": 9.65, "unit": "µM"}]}
{"smiles": "Clc1cccc(-c2cnc3cccnc3n2)c1", "note": "[3-(3′-Chlorophenyl)pyrido[2,3-b]pyrazine (6h)]", "values": [{"measurement": "IC50", "setting": "[1]", "value": 12.1, "unit": "µM"}, {"measurement": "IC50", "setting": "[2]", "value": 1.26, "unit": "µM"}]}
{"smiles": "Fc1cccc(-c2cnc3cccnc3n2)c1", "note": "[3-(3′-Fluorophenyl)pyrido[2,3-b]pyrazine (6f)]", "values": [{"measurement": "IC50", "setting": "[1]", "value": 79.8, "unit": "µM"}, {"measurement": "IC50", "setting": "[2]", "value": 0.899, "unit": "µM"}]}
{"smiles": "c1cnc2nc3c(nc2c1)CCCC3", "note": "[6,7,8,9-tetrahydropyrido[2,3-b]quinoxaline (6q)]", "values": [{"measurement": "IC50", "setting": "[1]", "value": 10.9, "unit": "µM"}, {"measurement": "IC50", "setting": "[2]", "value": 5.78, "unit": "µM"}]}
{"smiles": "Cc1cccc(-c2cnc3cccnc3n2)c1", "note": "[3-(3′-Methylphenyl)pyrido[2,3-b]pyrazine (6c)]", "values": [{"measurement": "IC50", "setting": "[1]", "value": 0.583, "unit": "µM"}, {"measurement": "IC50", "setting": "[2]", "value": 5.88, "unit": "µM"}]}
{"smiles": "O=[N+]([O-])c1ccccc1-c1cnc2cccnc2n1", "note": "[3-(2′-Nitrophenyl)pyrido[2,3-b]pyrazine (6o)]", "values": [{"measurement": "IC50", "setting": "[1]", "value": 22.3, "unit": "µM"}, {"measurement": "IC50", "setting": "[2]", "value": 3, "unit": "µM"}]}
{"smiles": "Brc1cccc(-c2cnc3cccnc3n2)c1", "note": "[3-(3′-Bromophenyl)pyrido[2,3-b]pyrazine (6j)]", "values": [{"measurement": "IC50", "setting": "[1]", "value": 11.5, "unit": "µM"}, {"measurement": "IC50", "setting": "[2]", "value": 3.12, "unit": "µM"}]}
{"smiles": "Clc1ccc(-c2cnc3cccnc3n2)cc1", "note": "[3-(4′-Chlorophenyl)pyrido[2,3-b]pyrazine (6g)]", "values": [{"measurement": "IC50", "setting": "[1]", "value": 2.63, "unit": "µM"}, {"measurement": "IC50", "setting": "[2]", "value": 2.59, "unit": "µM"}]}
{"smiles": "O=[N+]([O-])c1ccc(-c2cnc3cccnc3n2)cc1", "note": "[3-(4′-Nitrophenyl)pyrido[2,3-b]pyrazine (6m)]", "values": [{"measurement": "IC50", "setting": "[1]", "value": 20.8, "unit": "µM"}, {"measurement": "IC50", "setting": "[2]", "value": 1.97, "unit": "µM"}]}
{"smiles": "Brc1ccccc1-c1cnc2cccnc2n1", "note": "[3-(2′-Bromophenyl)pyrido[2,3-b]pyrazine (6k)]", "values": [{"measurement": "IC50", "setting": "[1]", "value": 7.45, "unit": "µM"}, {"measurement": "IC50", "setting": "[2]", "value": 4.03, "unit": "µM"}]}
{"smiles": "Cc1ccccc1-c1cnc2cccnc2n1", "note": "[3-(2′-Methylphenyl)pyrido[2,3-b]pyrazine (6d)]", "values": [{"measurement": "IC50", "setting": "[1]", "value": 21.2, "unit": "µM"}, {"measurement": "IC50", "setting": "[2]", "value": 5.39, "unit": "µM"}]}
{"smiles": "CN(C)C(=O)Oc1cccc([N+](C)(C)C)c1", "note": "[m-Trimethylammoniumphenyldimethylcarbamate]", "values": [{"measurement": "IC50", "setting": "[1]", "value": 49.6, "unit": "µM"}]}
{"smiles": "O=[N+]([O-])c1cccc(-c2cnc3cccnc3n2)c1", "note": "[3-(3′-Nitrophenyl)pyrido[2,3-b]pyrazine (6n)]", "values": [{"measurement": "IC50", "setting": "[1]", "value": 1.89, "unit": "µM"}, {"measurement": "IC50", "setting": "[2]", "value": 0.466, "unit": "µM"}]}
{"smiles": "c1cnc2nc(-c3ccc(N4CCCCC4)cc3)cnc2c1", "note": "[3-(4′-(Piperidin-1-yl)phenyl)pyrido[2,3-b]pyrazine (6p)]", "values": [{"measurement": "IC50", "setting": "[1]", "value": 3.91, "unit": "µM"}, {"measurement": "IC50", "setting": "[2]", "value": 4.75, "unit": "µM"}]}
{"smiles": "Clc1ccccc1-c1cnc2cccnc2n1", "note": "[3-(2′-Chlorophenyl)pyrido[2,3-b]pyrazine (6i)]", "values": [{"measurement": "IC50", "setting": "[1]", "value": 9.67, "unit": "µM"}, {"measurement": "IC50", "setting": "[2]", "value": 2.52, "unit": "µM"}]}
{"smiles": "Ic1ccc(-c2cnc3cccnc3n2)cc1", "note": "[3-(4′-Iodophenyl)pyrido[2,3-b]pyrazine (6l)]", "values": [{"measurement": "IC50", "setting": "[1]", "value": 31.2, "unit": "µM"}, {"measurement": "IC50", "setting": "[2]", "value": 4.05, "unit": "µM"}]}
{"smiles": "Cc1ccc(-c2cnc3cccnc3n2)cc1", "note": "[3-(4′-Methylphenyl)pyrido[2,3-b]pyrazine (6b)]", "values": [{"measurement": "IC50", "setting": "[1]", "value": 6.44, "unit": "µM"}, {"measurement": "IC50", "setting": "[2]", "value": 3.06, "unit": "µM"}]}
{"smiles": "Fc1ccc(-c2cnc3cccnc3n2)cc1", "note": "[3-(4′-Fluorophenyl)pyrido[2,3-b]pyrazine (6e)]", "values": [{"measurement": "IC50", "setting": "[1]", "value": 11.2, "unit": "µM"}, {"measurement": "IC50", "setting": "[2]", "value": 2.45, "unit": "µM"}]}
